Data from the kinase profiling compilation of Christmann-Franck et al. (2016).

What was measured:
Experiment in all cases: radiometric filter-binding kinase assay, Kinase HotSpot
Conditions in all cases: compound 0.5 µM; ATP 10 µM
ABL2 (human) = ABL2 (human) (UniProt P42684)
AURKC (human) = AURKC (human) (UniProt Q9UQB9)
CAMK2D (human) = CAMK2D (human) (UniProt Q13557)
CAMKK2 (human) = CAMKK2 (human) (UniProt Q96RR4)
CDK1 CCNB1 (human) = CDK1 CCNB1 (human) (UniProt P06493+P14635)
CHEK2 (human) = CHEK2 (human) (UniProt O96017)
CLK4 (human) = CLK4 (human) (UniProt Q9HAZ1)
CSNK1G3 (human) = CSNK1G3 (human) (UniProt Q9Y6M4)
DAPK2 (human) = DAPK2 (human) (UniProt Q9UIK4)
EGFR (human) = EGFR (human) (UniProt P00533)
EPHA3 (human) = EPHA3 (human) (UniProt P29320)
FGFR1 (human) = FGFR1 (human) (UniProt P11362)
FGR (human) = FGR (human) (UniProt P09769)
HIPK4 (human) = HIPK4 (human) (UniProt Q8NE63)
IGF1R (human) = IGF1R (human) (UniProt P08069)
IRAK4 (human) = IRAK4 (human) (UniProt Q9NWZ3)
ITK (human) = ITK (human) (UniProt Q08881)
LCK (human) = LCK (human) (UniProt P06239)
LIMK1 (human) = LIMK1 (human) (UniProt P53667)
MAP2K1 (human) = MAP2K1 (human) (UniProt Q02750)
MAPKAPK5 (human) = MAPKAPK5 (human) (UniProt Q8IW41)
MST1R (human) = MST1R (human) (UniProt Q04912)
MYLK2 (human) = MYLK2 (human) (UniProt Q9H1R3)
NEK6 (human) = NEK6 (human) (UniProt Q9HC98)
NUAK1 (human) = NUAK1 (human) (UniProt O60285)
PDGFRB (human) = PDGFRB (human) (UniProt P09619)
PKN1 (human) = PKN1 (human) (UniProt Q16512)
PRKCB1 (human) = PRKCB1 (human) (UniProt P05771)
PRKCZ (human) = PRKCZ (human) (UniProt Q05513)
RPS6KB2 (human) = RPS6KB2 (human) (UniProt Q9UBS0)
SRMS (human) = SRMS (human) (UniProt Q9H3Y6)
TGFBR2 (human) = TGFBR2 (human) (UniProt P37173)
ULK1 (human) = ULK1 (human) (UniProt O75385)
ULK2 (human) = ULK2 (human) (UniProt Q8IYT8)
WEE1 (human) = WEE1 (human) (UniProt P30291)
BRAF (human) = BRAF (human) (UniProt P15056)

Sequence of ULK2 (human) (Q8IYT8 whole entry, looked up): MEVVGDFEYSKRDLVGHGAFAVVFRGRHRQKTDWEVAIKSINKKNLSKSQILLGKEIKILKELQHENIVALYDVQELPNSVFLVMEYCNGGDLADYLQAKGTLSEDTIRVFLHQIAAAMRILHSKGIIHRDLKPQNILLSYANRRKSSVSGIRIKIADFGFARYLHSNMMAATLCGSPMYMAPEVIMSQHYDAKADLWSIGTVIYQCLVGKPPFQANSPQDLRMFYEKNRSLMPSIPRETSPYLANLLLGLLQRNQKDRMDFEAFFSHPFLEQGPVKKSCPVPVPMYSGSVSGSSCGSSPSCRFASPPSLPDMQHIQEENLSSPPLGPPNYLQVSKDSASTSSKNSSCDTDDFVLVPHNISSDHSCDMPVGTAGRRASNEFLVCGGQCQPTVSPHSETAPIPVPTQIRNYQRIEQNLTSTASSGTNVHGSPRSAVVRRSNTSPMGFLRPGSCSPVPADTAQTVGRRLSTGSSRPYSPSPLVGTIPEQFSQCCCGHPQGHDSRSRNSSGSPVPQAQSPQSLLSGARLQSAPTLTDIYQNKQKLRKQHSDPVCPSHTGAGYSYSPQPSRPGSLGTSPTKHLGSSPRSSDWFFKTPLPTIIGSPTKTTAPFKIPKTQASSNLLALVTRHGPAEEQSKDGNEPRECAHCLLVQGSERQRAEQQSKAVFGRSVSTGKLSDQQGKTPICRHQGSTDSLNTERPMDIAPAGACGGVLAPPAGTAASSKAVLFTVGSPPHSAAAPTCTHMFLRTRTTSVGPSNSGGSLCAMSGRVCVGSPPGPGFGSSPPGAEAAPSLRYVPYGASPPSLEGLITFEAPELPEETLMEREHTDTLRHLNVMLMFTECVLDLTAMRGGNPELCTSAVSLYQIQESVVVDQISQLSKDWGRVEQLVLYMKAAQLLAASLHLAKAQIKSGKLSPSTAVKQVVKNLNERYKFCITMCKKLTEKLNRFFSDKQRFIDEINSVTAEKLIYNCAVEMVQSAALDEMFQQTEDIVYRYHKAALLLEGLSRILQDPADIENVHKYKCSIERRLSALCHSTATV
Sequence of PDGFRB (human) (P09619 whole entry, looked up): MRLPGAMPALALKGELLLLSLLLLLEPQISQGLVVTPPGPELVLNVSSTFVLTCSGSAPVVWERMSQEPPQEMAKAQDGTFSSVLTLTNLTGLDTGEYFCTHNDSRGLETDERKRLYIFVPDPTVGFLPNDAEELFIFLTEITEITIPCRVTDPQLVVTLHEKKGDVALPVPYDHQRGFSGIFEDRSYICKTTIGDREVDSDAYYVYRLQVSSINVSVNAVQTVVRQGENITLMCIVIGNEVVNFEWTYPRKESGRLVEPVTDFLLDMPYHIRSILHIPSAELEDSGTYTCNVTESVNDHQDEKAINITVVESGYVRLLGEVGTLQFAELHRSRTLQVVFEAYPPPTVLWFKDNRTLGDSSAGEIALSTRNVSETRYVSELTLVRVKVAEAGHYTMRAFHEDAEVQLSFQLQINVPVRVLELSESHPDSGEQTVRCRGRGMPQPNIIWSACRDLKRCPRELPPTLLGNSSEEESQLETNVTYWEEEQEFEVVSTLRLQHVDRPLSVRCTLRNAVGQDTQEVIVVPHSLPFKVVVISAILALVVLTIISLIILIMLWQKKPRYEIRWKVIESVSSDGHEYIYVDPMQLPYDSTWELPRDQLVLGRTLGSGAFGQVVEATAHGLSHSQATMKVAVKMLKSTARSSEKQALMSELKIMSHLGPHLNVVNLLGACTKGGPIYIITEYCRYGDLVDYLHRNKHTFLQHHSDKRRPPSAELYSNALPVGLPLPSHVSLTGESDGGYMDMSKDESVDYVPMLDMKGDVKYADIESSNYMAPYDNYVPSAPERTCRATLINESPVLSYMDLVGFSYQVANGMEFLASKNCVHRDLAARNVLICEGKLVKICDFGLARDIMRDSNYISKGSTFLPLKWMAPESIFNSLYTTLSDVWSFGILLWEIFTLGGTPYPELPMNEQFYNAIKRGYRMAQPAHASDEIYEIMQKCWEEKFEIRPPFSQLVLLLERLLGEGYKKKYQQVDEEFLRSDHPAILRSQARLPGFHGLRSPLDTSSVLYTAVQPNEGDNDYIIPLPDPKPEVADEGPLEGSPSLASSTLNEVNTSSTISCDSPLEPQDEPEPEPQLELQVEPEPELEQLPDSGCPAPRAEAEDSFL
Sequence of CSNK1G3 (human) (Q9Y6M4 whole entry, looked up): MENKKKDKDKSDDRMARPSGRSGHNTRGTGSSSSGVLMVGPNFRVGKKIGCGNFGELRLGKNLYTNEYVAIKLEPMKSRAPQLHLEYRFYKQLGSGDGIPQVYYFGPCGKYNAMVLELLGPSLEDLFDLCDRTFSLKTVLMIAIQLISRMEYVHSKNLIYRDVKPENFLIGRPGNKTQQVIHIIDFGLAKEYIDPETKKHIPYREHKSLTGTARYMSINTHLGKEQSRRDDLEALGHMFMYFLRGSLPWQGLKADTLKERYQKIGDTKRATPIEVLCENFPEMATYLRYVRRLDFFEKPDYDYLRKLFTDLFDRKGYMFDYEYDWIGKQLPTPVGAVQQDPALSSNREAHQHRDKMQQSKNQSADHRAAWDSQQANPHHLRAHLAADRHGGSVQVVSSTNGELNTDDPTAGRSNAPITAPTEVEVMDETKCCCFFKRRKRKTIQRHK
Sequence of MAPKAPK5 (human) (Q8IW41 whole entry, looked up): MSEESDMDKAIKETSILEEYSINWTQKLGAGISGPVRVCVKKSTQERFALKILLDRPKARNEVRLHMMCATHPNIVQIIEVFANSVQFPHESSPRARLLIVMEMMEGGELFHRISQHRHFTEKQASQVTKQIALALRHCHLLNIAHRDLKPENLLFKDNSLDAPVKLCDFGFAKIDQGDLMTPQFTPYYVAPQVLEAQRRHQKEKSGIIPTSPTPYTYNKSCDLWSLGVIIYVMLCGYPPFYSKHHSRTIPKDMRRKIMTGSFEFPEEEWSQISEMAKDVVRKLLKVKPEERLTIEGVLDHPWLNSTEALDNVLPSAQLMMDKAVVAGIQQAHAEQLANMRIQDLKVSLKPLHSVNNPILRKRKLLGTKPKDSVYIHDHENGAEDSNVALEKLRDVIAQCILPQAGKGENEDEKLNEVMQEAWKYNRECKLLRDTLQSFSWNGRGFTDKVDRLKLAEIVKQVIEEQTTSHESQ
Sequence of ABL2 (human) (P42684 whole entry, looked up): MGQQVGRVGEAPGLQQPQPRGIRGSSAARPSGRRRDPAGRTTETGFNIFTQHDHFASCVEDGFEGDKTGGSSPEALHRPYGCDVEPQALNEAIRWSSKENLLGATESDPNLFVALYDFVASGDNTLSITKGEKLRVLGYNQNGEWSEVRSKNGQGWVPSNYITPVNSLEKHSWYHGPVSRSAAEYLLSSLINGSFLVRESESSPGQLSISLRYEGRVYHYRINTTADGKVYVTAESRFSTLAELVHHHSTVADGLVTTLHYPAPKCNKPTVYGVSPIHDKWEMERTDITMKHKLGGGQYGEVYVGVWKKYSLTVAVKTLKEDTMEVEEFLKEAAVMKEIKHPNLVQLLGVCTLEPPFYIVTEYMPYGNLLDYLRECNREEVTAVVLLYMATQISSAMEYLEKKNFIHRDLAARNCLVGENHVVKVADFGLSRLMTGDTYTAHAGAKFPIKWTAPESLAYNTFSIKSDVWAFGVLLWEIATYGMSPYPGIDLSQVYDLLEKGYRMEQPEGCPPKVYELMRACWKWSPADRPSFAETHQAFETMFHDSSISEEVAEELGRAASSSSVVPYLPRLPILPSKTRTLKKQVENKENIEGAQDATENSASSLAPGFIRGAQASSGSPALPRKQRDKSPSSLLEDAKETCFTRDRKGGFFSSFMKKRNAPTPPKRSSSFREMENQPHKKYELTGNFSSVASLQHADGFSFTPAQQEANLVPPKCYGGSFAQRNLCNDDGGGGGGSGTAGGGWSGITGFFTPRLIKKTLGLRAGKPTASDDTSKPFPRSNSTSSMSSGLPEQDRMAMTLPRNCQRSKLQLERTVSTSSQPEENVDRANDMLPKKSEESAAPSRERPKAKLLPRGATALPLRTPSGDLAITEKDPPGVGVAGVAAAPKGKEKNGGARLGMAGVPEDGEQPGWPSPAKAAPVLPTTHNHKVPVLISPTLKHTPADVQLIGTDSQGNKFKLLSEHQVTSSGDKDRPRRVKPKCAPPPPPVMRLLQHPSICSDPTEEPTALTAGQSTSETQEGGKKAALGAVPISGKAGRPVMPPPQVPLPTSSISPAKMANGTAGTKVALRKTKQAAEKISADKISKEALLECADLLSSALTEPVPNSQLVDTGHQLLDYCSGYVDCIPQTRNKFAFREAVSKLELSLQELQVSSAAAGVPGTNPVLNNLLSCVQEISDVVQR
Sequence of HIPK4 (human) (Q8NE63 whole entry, looked up): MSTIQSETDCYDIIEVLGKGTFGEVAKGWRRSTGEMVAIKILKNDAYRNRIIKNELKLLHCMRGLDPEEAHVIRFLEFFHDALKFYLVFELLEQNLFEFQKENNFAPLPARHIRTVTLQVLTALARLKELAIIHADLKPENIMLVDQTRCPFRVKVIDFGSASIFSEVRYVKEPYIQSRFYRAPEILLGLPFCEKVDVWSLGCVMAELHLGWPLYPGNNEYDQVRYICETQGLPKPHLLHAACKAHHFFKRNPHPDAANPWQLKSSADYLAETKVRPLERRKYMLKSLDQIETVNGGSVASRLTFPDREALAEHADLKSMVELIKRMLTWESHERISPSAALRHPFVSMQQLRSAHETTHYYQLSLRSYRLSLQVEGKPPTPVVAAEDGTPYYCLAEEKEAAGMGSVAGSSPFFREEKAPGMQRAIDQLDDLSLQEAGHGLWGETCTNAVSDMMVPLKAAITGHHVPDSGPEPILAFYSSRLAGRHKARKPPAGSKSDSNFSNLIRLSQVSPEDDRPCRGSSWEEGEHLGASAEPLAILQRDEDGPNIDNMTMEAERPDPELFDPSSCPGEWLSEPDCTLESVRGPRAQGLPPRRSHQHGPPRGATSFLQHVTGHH

SMILES | residual activity (ABL2 (human)) [%] | residual activity (AURKC (human)) [%] | residual activity (CAMK2D (human)) [%] | residual activity (CAMKK2 (human)) [%] | residual activity (CDK1 CCNB1 (human)) [%] | residual activity (CHEK2 (human)) [%] | residual activity (CLK4 (human)) [%] | residual activity (CSNK1G3 (human)) [%] | residual activity (DAPK2 (human)) [%] | residual activity (EPHA3 (human)) [%] | residual activity (FGFR1 (human)) [%] | residual activity (FGR (human)) [%] | residual activity (HIPK4 (human)) [%] | residual activity (IGF1R (human)) [%] | residual activity (IRAK4 (human)) [%] | residual activity (ITK (human)) [%] | residual activity (LCK (human)) [%] | residual activity (LIMK1 (human)) [%] | residual activity (MAP2K1 (human)) [%] | residual activity (MAPKAPK5 (human)) [%] | also measured
O=C(c1ccccc1)c1ccc(N2CCOCC2)cc1O | 105 | 102 | 95.1 | 111 | 92.3 | 106 | 101 | 98.8 | 102 | 105 | 95.9 | 104 | 99.5 | 106 | 108 | 99.5 | 101 | 83.9 | 98.1 | 99.8 | residual activity (EGFR (human)): 94.9%; residual activity (MST1R (human)): 106%; residual activity (MYLK2 (human)): 99.1%; residual activity (NEK6 (human)): 95%; residual activity (NUAK1 (human)): 94.9%; residual activity (PDGFRB (human)): 96.5%; residual activity (PKN1 (human)): 104%; residual activity (PRKCB1 (human)): 90.1%; residual activity (PRKCZ (human)): 85%; residual activity (RPS6KB2 (human)): 100%; residual activity (SRMS (human)): 93.9%; residual activity (TGFBR2 (human)): 109%; residual activity (ULK1 (human)): 98.9%; residual activity (ULK2 (human)): 96.7%; residual activity (WEE1 (human)): 94.2%
c1ccc(-c2cnc(Nc3ccc(OCCN4CCCC4)cc3)s2)cc1 | 37.2 | 94.9 | 48.2 | 89.4 | 85.1 | 99.4 | 97.9 | 91.8 | 90.3 | 98.7 | 75.4 | 65.7 | 98.5 | 112 | 86.1 | 85.2 | 48.6 | 66.9 | 96.9 | 83.4 | residual activity (EGFR (human)): 98.3%; residual activity (MST1R (human)): 107%; residual activity (MYLK2 (human)): 28.7%; residual activity (NEK6 (human)): 102%; residual activity (NUAK1 (human)): 56.4%; residual activity (PDGFRB (human)): 28.5%; residual activity (PKN1 (human)): 94.8%; residual activity (PRKCB1 (human)): 108%; residual activity (PRKCZ (human)): 96.3%; residual activity (RPS6KB2 (human)): 92.7%; residual activity (SRMS (human)): 96.5%; residual activity (TGFBR2 (human)): 129%; residual activity (ULK1 (human)): 127%; residual activity (ULK2 (human)): 78.3%; residual activity (WEE1 (human)): 92%
N/C(=N\N=C/c1ccc(-c2cccc([N+](=O)[O-])c2)o1)N[N+](=O)[O-] | 95.7 | 90.5 | 90.1 | 114 | 87.9 | 104 | 103 | 86.2 | 80.1 | 99.3 | 97.6 | 90.9 | 102 | 96.4 | 87.3 | 99.5 | 98.6 | 99.7 | 105 | 94.6 | residual activity (EGFR (human)): 100%; residual activity (MST1R (human)): 97.6%; residual activity (MYLK2 (human)): 100%; residual activity (NEK6 (human)): 93.4%; residual activity (NUAK1 (human)): 96.4%; residual activity (PDGFRB (human)): 129%; residual activity (PKN1 (human)): 93.9%; residual activity (PRKCB1 (human)): 88.9%; residual activity (PRKCZ (human)): 90.1%; residual activity (RPS6KB2 (human)): 102%; residual activity (SRMS (human)): 90.2%; residual activity (TGFBR2 (human)): 123%; residual activity (ULK1 (human)): 93.7%; residual activity (ULK2 (human)): 87.3%; residual activity (WEE1 (human)): 100%
O=c1c2ccccc2[nH]c(=S)n1CCN1CCC(=C(c2ccc(F)cc2)c2ccc(F)cc2)CC1 | 103 | 99.4 | 97.9 | 100 | 83 | 106 | 103 | 97.1 | 104 | 101 | 105 | 95.4 | 98.4 | 105 | 105 | 97.1 | 99.5 | 98.4 | 97.5 | 101 | residual activity (EGFR (human)): 101%; residual activity (MST1R (human)): 103%; residual activity (MYLK2 (human)): 99.9%; residual activity (NEK6 (human)): 96.2%; residual activity (NUAK1 (human)): 102%; residual activity (PDGFRB (human)): 112%; residual activity (PKN1 (human)): 103%; residual activity (PRKCB1 (human)): 96%; residual activity (PRKCZ (human)): 102%; residual activity (RPS6KB2 (human)): 102%; residual activity (SRMS (human)): 96.7%; residual activity (TGFBR2 (human)): 119%; residual activity (ULK1 (human)): 98.1%; residual activity (ULK2 (human)): 96.5%; residual activity (WEE1 (human)): 93%
CCCCc1c(-c2ccc(O)cc2)[nH]c2nccnc12 | 64.9 | 44.9 | 87.3 | 91.7 | 45.2 | 61.1 | 64.3 | 82.3 | 101 | 95 | 81.8 | 63 | 108 | 87.3 | 159 | 104 | 86.8 | 64.3 | 94.8 | 93.1 | residual activity (BRAF (human)): 99.3%; residual activity (MST1R (human)): 101%; residual activity (MYLK2 (human)): 95.7%; residual activity (NEK6 (human)): 123%; residual activity (NUAK1 (human)): 19.1%; residual activity (PDGFRB (human)): 91.4%; residual activity (PKN1 (human)): 90.3%; residual activity (PRKCB1 (human)): 95.5%; residual activity (PRKCZ (human)): 97.4%; residual activity (RPS6KB2 (human)): 102%; residual activity (SRMS (human)): 95.4%; residual activity (TGFBR2 (human)): 55%; residual activity (ULK1 (human)): 82.5%; residual activity (ULK2 (human)): 112%; residual activity (WEE1 (human)): 94.6%
O=S(=O)(NCCNC/C=C/c1ccc(Br)cc1)c1cccc2cnccc12 | 84.4 | 89 | 97.1 | 95.6 | 93.3 | 82.8 | 119 | 93.3 | 72.1 | 109 | 87.6 | 106 | 97.7 | 104 | 110 | 86.8 | 103 | 90.6 | 90.5 | 90.2 | residual activity (BRAF (human)): 99.8%; residual activity (MST1R (human)): 97.4%; residual activity (MYLK2 (human)): 96.5%; residual activity (NEK6 (human)): 100%; residual activity (NUAK1 (human)): 32.8%; residual activity (PDGFRB (human)): 112%; residual activity (PKN1 (human)): 14.3%; residual activity (PRKCB1 (human)): 88.3%; residual activity (PRKCZ (human)): 79.8%; residual activity (RPS6KB2 (human)): 71.9%; residual activity (SRMS (human)): 97.8%; residual activity (TGFBR2 (human)): 92.1%; residual activity (ULK1 (human)): 102%; residual activity (ULK2 (human)): 98.9%; residual activity (WEE1 (human)): 84.6%
